# According to ChEMBL document CHEMBL1135180, “Synthesis and anti-influenza virus activity of 4-guanidino-7-substituted Neu5Ac2en derivatives” (Bioorg Med Chem Lett, 2002):
# Assays:
# [1] = system: Influenza A virus; test: Inhibition of plaque formation; assay type: functional, organism-based
# [2] = target: Neuraminidase (Influenza A virus (A/Puerto Rico/8/1934(H1N1)), UniProt P03468); test: Inhibition of sialidase activity; assay type: functional, Influenza A virus (strain: A/PR/8/34)
# Sequence of Neuraminidase (Influenza A virus (A/Puerto Rico/8/1934(H1N1)), UniProt P03468) (P03468 whole entry): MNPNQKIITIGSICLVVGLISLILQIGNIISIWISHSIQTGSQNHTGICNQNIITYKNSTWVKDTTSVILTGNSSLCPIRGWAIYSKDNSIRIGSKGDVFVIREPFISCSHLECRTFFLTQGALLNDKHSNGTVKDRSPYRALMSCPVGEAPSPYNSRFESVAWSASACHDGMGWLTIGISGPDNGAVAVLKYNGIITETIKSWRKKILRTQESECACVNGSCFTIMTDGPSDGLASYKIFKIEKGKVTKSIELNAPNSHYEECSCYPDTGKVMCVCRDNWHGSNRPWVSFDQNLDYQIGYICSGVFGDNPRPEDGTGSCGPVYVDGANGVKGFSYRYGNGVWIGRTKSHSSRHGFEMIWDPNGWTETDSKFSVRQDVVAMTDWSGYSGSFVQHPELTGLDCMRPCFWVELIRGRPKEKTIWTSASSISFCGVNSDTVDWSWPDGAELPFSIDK
SMILES,IC50 [1] [ng/mL],IC50 [2] [nM]
CC(=O)N[C@H]1[C@H]([C@H](O)[C@H](O)CO)OC(C(=O)O)=C[C@@H]1NC(=N)N [ZANAMIVIR],1,
CO[C@@H]([C@@H]1OC(C(=O)O)=C[C@H](N=C(N)N)[C@H]1NC(C)=O)[C@H](O)CO.O=C(O)C(F)(F)F,3,
CC(=O)N[C@@H]1[C@@H](NC(=N)N)C=C(C(=O)O)O[C@H]1C(F)(F)[C@H](O)CO.O=C(O)C(F)(F)F,400,1030
CC(=O)N[C@H]1[C@H]([C@H](F)[C@H](O)CO)OC(C(=O)O)=C[C@@H]1NC(=N)N.O=C(O)C(F)(F)F,1.8,1.78
CCCCCCCC(=O)N[C@@H]([C@@H]1OC(C(=O)O)=C[C@H](N=C(N)N)[C@H]1NC(C)=O)[C@H](O)CO.O=C(O)C(F)(F)F,100,84
CCCCCCCCCCCCCCCC(=O)N[C@@H]([C@@H]1OC(C(=O)O)=C[C@H](N=C(N)N)[C@H]1NC(C)=O)[C@H](O)CO.O=C(O)C(F)(F)F,80,68.7
CC(=O)N[C@@H]1[C@@H](N=C(N)N)C=C(C(=O)O)O[C@H]1C[C@H](O)CO.O=C(O)C(F)(F)F,10,93
CC(=O)N[C@H]1[C@H]([C@H](N)[C@H](O)CO)OC(C(=O)O)=C[C@@H]1NC(=N)N.O=C(O)C(F)(F)F,20,84
CC(=O)N[C@H]1[C@H]([C@H](N=[N+]=[N-])[C@H](O)CO)OC(C(=O)O)=C[C@@H]1NC(=N)N.O=C(O)C(F)(F)F,0.3,3.39
CCO[C@@H]([C@@H]1OC(C(=O)O)=C[C@H](N=C(N)N)[C@H]1NC(C)=O)[C@H](O)CO.O=C(O)C(F)(F)F,0.7,30.8
CCC(=O)N[C@@H]([C@@H]1OC(C(=O)O)=C[C@H](N=C(N)N)[C@H]1NC(C)=O)[C@H](O)CO.O=C(O)C(F)(F)F,4,19.9
CC(=O)N[C@@H]([C@@H]1OC(C(=O)O)=C[C@H](N=C(N)N)[C@H]1NC(C)=O)[C@H](O)CO,,37.1
